From patent US10765764B2, “Probes for imaging huntingtin protein” (CHDI Foundation, Inc., priority 2015, dated 2020)

Each molecule was assayed against T1, Q46 protein aggregates (Homo sapiens, UniProt P42858) (assay: Q46 Radioligand Binding Assay (RBA), displacement of [^3H3]MK-3328). Details: 10 nM [^3H3]MK-3328, 5 μM Q46 protein aggregates.
T1 construct: fused on or other part: An N-terminal GST tag, cleaved off with thrombin before the assay to trigger aggregation
Protocol: For radioligand binding assays (RBA) GST-Q46 protein was generated based on a previous publication (Scherzinger et al. Cell, Vol. 90, 549-558, Aug. 8, 1997). For experiments 33 μM GST-Q46 was incubated with 150 μg/mL thrombin in assay buffer (150 mM NaCl, 50 mM Tris pH 8.0) and 2 mM CaCl2 for 16 hours at 37° C. Aggregated Q46 was pelleted by centrifugation for 5 minutes at 13,000 rpm in a bench top centrifuge and re-dissolved in the same volume of assay buffer. Test compounds were prepared by titration in DMSO at 11 concentrations from 33 μM to 1 nM. For the RBA, Q46 protein aggregates and test compounds were pre-incubated in assay buffer for 20 minutes at room temperature, in 140 μL/well in a 96-well plate (pp, round bottom). Then, ligand was added in 10 μL/well and incubated for 60 minutes at 37° C. Final assay concentrations were 1 μM to 30 pM test compound, 5 μM Q46 protein (equivalent monomer concentration) and 10 nM ligand [^3H3]MK-3328 (Harrision et al., ACS Med. Chem. Lett., 2 (2011), pp 498-502). Samples were transferred onto GF/B filter plates and washed 2× with 200 μL PBS using a Filtermate Harvester. After drying filter plates for 1 hour at 37° C., the back of the plates was sealed with foil and 30 μl/well scintillation fluid (Packard MicroScint 40) was added, incubated for incubated for 15 minutes in the dark and counted in a TopCount reader. For analysis, replicate data from independent assay plates were normalized towards 0% and 100% inhibition using control wells of vehicle (0% inhibition) and 3 μM unlabelled MK-3328 (100% inhibition). IC50 values were determined with a sigmoidal inhibition model with four variables (top, bottom, slope, IC50) in a global fit using the normalized replicate data.

T1 sequence (P42858 with tags, fused parts or gaps with the stated changes, form open): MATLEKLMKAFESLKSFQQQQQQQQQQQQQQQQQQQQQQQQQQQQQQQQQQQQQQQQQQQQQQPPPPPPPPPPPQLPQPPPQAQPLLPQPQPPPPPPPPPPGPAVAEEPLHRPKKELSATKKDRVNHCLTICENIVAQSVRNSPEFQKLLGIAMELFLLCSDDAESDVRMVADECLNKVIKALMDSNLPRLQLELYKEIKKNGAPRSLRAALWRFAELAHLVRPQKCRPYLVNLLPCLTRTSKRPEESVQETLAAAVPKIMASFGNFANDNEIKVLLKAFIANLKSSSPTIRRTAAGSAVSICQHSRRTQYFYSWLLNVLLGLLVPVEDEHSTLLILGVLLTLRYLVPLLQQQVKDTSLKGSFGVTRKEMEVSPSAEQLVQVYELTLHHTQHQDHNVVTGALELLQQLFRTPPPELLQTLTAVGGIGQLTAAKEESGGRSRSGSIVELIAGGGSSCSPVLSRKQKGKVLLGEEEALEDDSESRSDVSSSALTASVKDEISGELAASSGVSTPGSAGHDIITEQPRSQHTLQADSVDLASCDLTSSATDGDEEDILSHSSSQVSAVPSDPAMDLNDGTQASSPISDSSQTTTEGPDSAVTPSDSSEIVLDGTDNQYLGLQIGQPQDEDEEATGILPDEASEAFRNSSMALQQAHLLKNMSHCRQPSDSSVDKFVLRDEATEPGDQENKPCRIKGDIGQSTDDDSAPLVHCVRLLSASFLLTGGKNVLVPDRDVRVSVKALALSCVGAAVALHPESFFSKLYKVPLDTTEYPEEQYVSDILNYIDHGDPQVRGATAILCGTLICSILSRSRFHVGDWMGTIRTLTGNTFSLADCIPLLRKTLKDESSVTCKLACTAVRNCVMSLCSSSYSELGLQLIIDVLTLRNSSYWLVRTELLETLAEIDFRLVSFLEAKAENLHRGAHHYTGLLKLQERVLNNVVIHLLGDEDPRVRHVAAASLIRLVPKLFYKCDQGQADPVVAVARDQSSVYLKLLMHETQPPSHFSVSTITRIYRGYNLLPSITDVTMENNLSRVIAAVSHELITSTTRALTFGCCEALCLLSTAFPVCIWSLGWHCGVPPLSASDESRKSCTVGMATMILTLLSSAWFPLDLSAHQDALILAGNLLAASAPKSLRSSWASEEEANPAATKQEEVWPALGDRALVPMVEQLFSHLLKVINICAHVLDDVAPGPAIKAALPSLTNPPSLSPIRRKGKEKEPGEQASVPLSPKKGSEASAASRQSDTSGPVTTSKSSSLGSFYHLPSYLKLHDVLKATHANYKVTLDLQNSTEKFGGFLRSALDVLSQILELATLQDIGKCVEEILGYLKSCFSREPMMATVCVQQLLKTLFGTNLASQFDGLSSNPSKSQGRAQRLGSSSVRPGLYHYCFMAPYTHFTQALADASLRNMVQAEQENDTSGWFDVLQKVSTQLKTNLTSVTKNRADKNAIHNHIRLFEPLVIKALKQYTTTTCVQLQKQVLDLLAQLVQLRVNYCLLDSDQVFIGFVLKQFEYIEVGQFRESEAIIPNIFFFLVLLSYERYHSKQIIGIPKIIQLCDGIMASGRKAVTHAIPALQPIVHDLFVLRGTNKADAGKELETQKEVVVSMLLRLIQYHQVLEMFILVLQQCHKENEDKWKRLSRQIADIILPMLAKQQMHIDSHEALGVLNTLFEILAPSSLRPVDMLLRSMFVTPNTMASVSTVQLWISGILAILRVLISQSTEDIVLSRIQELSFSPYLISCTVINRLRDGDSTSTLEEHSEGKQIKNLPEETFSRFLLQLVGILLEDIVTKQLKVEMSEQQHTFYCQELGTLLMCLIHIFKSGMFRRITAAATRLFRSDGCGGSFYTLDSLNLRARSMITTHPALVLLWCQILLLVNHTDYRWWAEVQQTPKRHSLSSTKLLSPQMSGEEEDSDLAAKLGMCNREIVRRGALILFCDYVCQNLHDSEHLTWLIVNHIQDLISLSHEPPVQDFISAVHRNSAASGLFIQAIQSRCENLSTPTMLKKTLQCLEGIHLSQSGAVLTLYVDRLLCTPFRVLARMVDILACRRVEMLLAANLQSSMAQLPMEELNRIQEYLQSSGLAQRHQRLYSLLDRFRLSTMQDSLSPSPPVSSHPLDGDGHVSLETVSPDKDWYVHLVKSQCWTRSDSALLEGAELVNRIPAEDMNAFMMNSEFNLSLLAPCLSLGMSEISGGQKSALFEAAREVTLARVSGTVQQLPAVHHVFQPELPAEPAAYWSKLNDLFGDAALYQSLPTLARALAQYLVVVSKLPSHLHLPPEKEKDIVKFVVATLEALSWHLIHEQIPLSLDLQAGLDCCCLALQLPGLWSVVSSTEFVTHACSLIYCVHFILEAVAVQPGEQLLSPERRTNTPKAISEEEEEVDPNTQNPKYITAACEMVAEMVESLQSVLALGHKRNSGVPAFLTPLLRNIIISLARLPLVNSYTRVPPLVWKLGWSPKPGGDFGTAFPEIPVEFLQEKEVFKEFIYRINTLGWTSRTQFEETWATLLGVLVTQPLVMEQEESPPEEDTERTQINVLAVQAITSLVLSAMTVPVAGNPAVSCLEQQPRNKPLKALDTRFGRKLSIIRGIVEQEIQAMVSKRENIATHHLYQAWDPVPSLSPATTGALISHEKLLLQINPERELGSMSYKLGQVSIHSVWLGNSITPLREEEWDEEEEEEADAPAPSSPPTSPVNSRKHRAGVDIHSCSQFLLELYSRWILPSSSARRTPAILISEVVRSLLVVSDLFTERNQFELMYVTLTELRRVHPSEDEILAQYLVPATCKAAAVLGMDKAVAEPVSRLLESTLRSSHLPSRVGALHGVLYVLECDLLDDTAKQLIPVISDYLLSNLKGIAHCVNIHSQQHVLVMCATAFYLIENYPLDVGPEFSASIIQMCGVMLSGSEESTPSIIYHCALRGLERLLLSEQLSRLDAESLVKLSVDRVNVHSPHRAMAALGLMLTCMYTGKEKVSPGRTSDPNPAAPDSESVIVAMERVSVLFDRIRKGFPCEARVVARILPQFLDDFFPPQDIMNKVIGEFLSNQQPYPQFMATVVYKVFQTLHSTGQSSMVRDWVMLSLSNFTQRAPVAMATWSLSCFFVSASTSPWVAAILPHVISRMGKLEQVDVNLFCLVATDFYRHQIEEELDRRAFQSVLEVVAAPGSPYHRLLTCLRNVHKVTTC

Structure (SMILES) | IC50
COc1cncc(NC(=O)c2ccn3c(n2)nc2ccc(OC)cc23)c1 [4-methoxy-N-(5-methoxypyridin-3-yl)-1,8,10-triazatricyclo[7.4.0.0^2,7]trideca-2(7),3,5,8,10,12-hexaene-11-carboxamide] | < 100 nM
COc1ccc2c(c1)nc1nc(C(=O)N3Cc4cnn(C)c4C3)ccn12 [5-methoxy-11-{1-methyl-1H,4H,5H,6H-pyrrolo[3,4-c]pyrazole-5-carbonyl}-1,8,10-triazatricyclo[7.4.0.0^2,7]trideca-2(7),3,5,8,10,12-hexaene] | < 100 nM
COc1ccc2c(c1)nc1nc(C(=O)Nc3ccc(=O)n(C)n3)ccn12 [5-methoxy-N-(1-methyl-6-oxo-1,6-dihydropyridazin-3-yl)-1,8,10-triazatricyclo[7.4.0.0^2,7]trideca-2(7),3,5,8,10,12-hexaene-11-carboxamide] | < 100 nM
COc1ccc2c(c1)nc1nc(C(=O)Nc3ccc(OC)nc3)ccn12 [5-methoxy-N-(6-methoxypyridin-3-yl)-1,8,10-triazatricyclo[7.4.0.0^2,7]trideca-2(7),3,5,8,10,12-hexaene-11-carboxamide] | < 100 nM
COc1ccc2c(c1)nc1nc(C(=O)Nc3cccnc3)ccn12 [5-methoxy-N-(pyridin-3-yl)-1,8,10-triazatricyclo[7.4.0.0^2,7]trideca-2(7),3,5,8,10,12-hexaene-11-carboxamide] | < 100 nM
O=C(Nc1cccnc1)c1cn2c(n1)sc1cc(OCCF)ccc12 [10-(2-fluoroethoxy)-N-(pyridin-3-yl)-7-thia-2,5-diazatricyclo[6.4.0.0^2,6]dodeca-1(8),3,5,9,11-pentaene-4-carboxamide] | < 100 nM
COc1ccc(COc2ccc3c(c2)sc2nc(C(=O)Nc4cncc(OC)c4)cn23)nc1 [10-[(5-methoxypyridin-2-yl)methoxy]-N-(5-methoxypyridin-3-yl)-7-thia-2,5-diazatricyclo[6.4.0.0^2,6]dodeca-1(12),3,5,8,10-pentaene-4-carboxamide] | < 100 nM
COc1ccc(NC(=O)c2cn3c(n2)sc2cc(O)ccc23)cn1 [10-hydroxy-N-(6-methoxypyridin-3-yl)-7-thia-2,5-diazatricyclo[6.4.0.0^2,6]dodeca-1(12),3,5,8,10-pentaene-4-carboxamide] | < 100 nM
COc1ccc2c(c1)nc1sc(C(=O)Nc3cnc(C)nc3)cn12 [10-methoxy-N-(2-methylpyrimidin-5-yl)-5-thia-2,7-diazatricyclo[6.4.0.0^2,6]dodeca-1(8),3,6,9,11-pentaene-4-carboxamide] | < 100 nM
COc1cncc(NC(=O)c2cn3c(nc4cc(OC)ccc43)s2)c1 [10-methoxy-N-(5-methoxypyridin-3-yl)-5-thia-2,7-diazatricyclo[6.4.0.0^2,6]dodeca-1(12),3,6,8,10-pentaene-4-carboxamide] | < 100 nM
COc1cncc(NC(=O)c2cn3c(n2)sc2nc(OC)ccc23)c1 [10-methoxy-N-(5-methoxypyridin-3-yl)-7-thia-2,5,9-triazatricyclo[6.4.0.0^2,6]dodeca-1(12),3,5,8,10-pentaene-4-carboxamide] | < 100 nM
COc1ccc2c(c1)sc1nc(C(=O)Nc3ccc(OC)nc3)cn12 [10-methoxy-N-(6-methoxypyridin-3-yl)-7-thia-2,5-diazatricyclo[6.4.0.0^2,6]dodeca-1(12),3,5,8,10-pentaene-4-carboxamide] | < 100 nM
COc1ccc2c(c1)sc1nc(C(=O)Nc3ccc(C)nc3)cn12 [10-methoxy-N-(6-methylpyridin-3-yl)-7-thia-2,5-diazatricyclo[6.4.0.0^2,6]dodeca-1(12),3,5,8,10-pentaene-4-carboxamide] | < 100 nM
COc1ccc2c(c1)sc1nc(C(=O)Nc3ccc(=O)[nH]n3)cn12 [10-methoxy-N-(6-oxo-1,6-dihydropyridazin-3-yl)-7-thia-2,5-diazatricyclo[6.4.0.0^2,6]dodeca-1(12),3,5,8,10-pentaene-4-carboxamide] | < 100 nM
COc1ccc2c(c1)sc1nc(C(=O)Nc3ccc(=O)[nH]c3)cn12 [10-methoxy-N-(6-oxo-1,6-dihydropyridin-3-yl)-7-thia-2,5-diazatricyclo[6.4.0.0^2,6]dodeca-1(12),3,5,8,10-pentaene-4-carboxamide] | < 100 nM
COc1ccc2c(c1)sc1nc(C(=O)Nc3cnccn3)cn12 [10-methoxy-N-(pyrazin-2-yl)-7-thia-2,5-diazatricyclo[6.4.0.0^2,6]dodeca-1(12),3,5,8,10-pentaene-4-carboxamide] | < 100 nM
COc1ccc2c(n1)sc1nc(C(=O)Nc3cccnc3)cn12 [10-methoxy-N-(pyridin-3-yl)-7-thia-2,5,9-triazatricyclo[6.4.0.0^2,6]dodeca-1(12),3,5,8,10-pentaene-4-carboxamide] | < 100 nM
COc1ccc2c(c1)sc1nc(C(=O)Nc3cccnc3)cn12 [10-methoxy-N-(pyridin-3-yl)-7-thia-2,5-diazatricyclo[6.4.0.0^2,6]dodeca-1(12),3,5,8,10-pentaene-4-carboxamide] | < 100 nM

Next, values leading:

IC50 | Structure (SMILES)
100 to 500 nM | COc1ccc2c(c1)sc1nc(C(=O)Nc3ccc[n+]([O-])c3)cn12 [3-{10-methoxy-7-thia-2,5-diazatricyclo[6.4.0.0^2,6]dodeca-1(12),3,5,8,10-pentaene-4-amido}pyridin-1-ium-1-olate]
< 100 nM | COc1cncc(NC(=O)c2ccn3c(n2)nc2cc(OC)ccc23)c1 [5-methoxy-N-(5-methoxypyridin-3-yl)-1,8,10-triazatricyclo[7.4.0.0^2,7]trideca-2(7),3,5,8,10,12-hexaene-11-carboxamide]
100 to 500 nM | COc1cncc(NC(=O)c2cn3c(n2)sc2cc(CN(C)C)ccc23)c1 [10-[(dimethylamino)methyl]-N-(5-methoxypyridin-3-yl)-7-thia-2,5-diazatricyclo[6.4.0.0^2,6]dodeca-1(12),3,5,8,10-pentaene-4-carboxamide]
< 100 nM | O=C(Nc1cccnc1)c1cn2c(n1)sc1cc(O)ccc12 [10-hydroxy-N-(pyridin-3-yl)-7-thia-2,5-diazatricyclo[6.4.0.0^2,6]dodeca-1(12),3,5,8,10-pentaene-4-carboxamide]
< 100 nM | COc1ccc2c(c1)sc1nc(C(=O)N3Cc4cnn(C)c4C3)cn12 [10-methoxy-4-{1-methyl-1H,4H,5H,6H-pyrrolo[3,4-c]pyrazole-5-carbonyl}-7-thia-2,5-diazatricyclo[6.4.0.0^2,6]dodeca-1(12),3,5,8,10-pentaene]
> 500 nM | COc1ccc2c(c1)sc1nc(C(=O)N3CCc4ccncc43)cn12 [10-methoxy-4-{1H,2H,3H-pyrrolo[2,3-c]pyridine-1-carbonyl}-7-thia-2,5-diazatricyclo[6.4.0.0^2,6]dodeca-1(12),3,5,8,10-pentaene]
100 to 500 nM | COc1ccc2c(c1)sc1nc(C(=O)Nc3cnn(C)c3)cn12 [10-methoxy-N-(1-methyl-1H-pyrazol-4-yl)-7-thia-2,5-diazatricyclo[6.4.0.0^2,6]dodeca-1(12),3,5,8,10-pentaene-4-carboxamide]
< 100 nM | COc1ccc2c(c1)nc1sc(C(=O)Nc3ccc(=O)n(C)n3)cn12 [10-methoxy-N-(1-methyl-6-oxo-1,6-dihydropyridazin-3-yl)-5-thia-2,7-diazatricyclo[6.4.0.0^2,6]dodeca-1(12),3,6,8,10-pentaene-4-carboxamide]
100 to 500 nM | COCCNC(=O)c1cn2c(n1)sc1cc(OC)ccc12 [10-methoxy-N-(2-methoxyethyl)-7-thia-2,5-diazatricyclo[6.4.0.0^2,6]dodeca-1(12),3,5,8,10-pentaene-4-carboxamide]
< 100 nM | COc1ccc2c(c1)sc1nc(C(=O)Nc3cnc(C)nc3)cn12 [10-methoxy-N-(2-methylpyrimidin-5-yl)-7-thia-2,5-diazatricyclo[6.4.0.0^2,6]dodeca-1(12),3,5,8,10-pentaene-4-carboxamide]
< 100 nM | COc1ccc(NC(=O)c2cn3c(n2)sc2cc(OC)ccc23)nc1 [10-methoxy-N-(5-methoxypyridin-2-yl)-7-thia-2,5-diazatricyclo[6.4.0.0^2,6]dodeca-1(12),3,5,8,10-pentaene-4-carboxamide]
< 100 nM | COc1cncc(NC(=O)c2cn3c(n2)sc2cc(OC)ccc23)c1 [10-methoxy-N-(5-methoxypyridin-3-yl)-7-thia-2,5-diazatricyclo[6.4.0.0^2,6]dodeca-1(12),3,5,8,10-pentaene-4-carboxamide]
> 500 nM | COc1ccc2c(c1)sc1nc(C(=O)NCc3cccnc3)cn12 [10-methoxy-N-(pyridin-3-ylmethyl)-7-thia-2,5-diazatricyclo[6.4.0.0^2,6]dodeca-1(12),3,5,8,10-pentaene-4-carboxamide]
< 100 nM | COc1ccc2c(c1)sc1nc(C(=O)Nc3ccncc3)cn12 [10-methoxy-N-(pyridin-4-yl)-7-thia-2,5-diazatricyclo[6.4.0.0^2,6]dodeca-1(12),3,5,8,10-pentaene-4-carboxamide]
